Experimental data from PubChem BioAssay (NCI).
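Cultured in 96-well plates, cells were exposed to test compound for 48 hours across five concentrations. Here, GI50 denotes the concentration required for 50% inhibition of growth. TGI: concentration producing complete growth inhibition.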

Experiments:
Test in all cases: DTP human tumour cell line panel, 48 h
KM12 colon = test system: KM12 colon
LOX IMVI melanoma = test system: LOX IMVI melanoma
SR leukemia = test system: SR leukemia
HT29 colon = test system: HT29 colon
K-562 leukemia = test system: K-562 leukemia
SN12C renal = test system: SN12C renal
786-0 renal = test system: 786-0 renal
MALME-3M melanoma = test system: MALME-3M melanoma
UACC-257 melanoma = test system: UACC-257 melanoma
HOP-92 NSCLC = test system: HOP-92 NSCLC
PC-3 prostate = test system: PC-3 prostate
SF-295 CNS = test system: SF-295 CNS
SNB-75 CNS = test system: SNB-75 CNS
HOP-62 NSCLC = test system: HOP-62 NSCLC
BT-549 breast = test system: BT-549 breast
HCT-116 colon = test system: HCT-116 colon
SK-MEL-2 melanoma = test system: SK-MEL-2 melanoma
UACC-62 melanoma = test system: UACC-62 melanoma
ACHN renal = test system: ACHN renal
NCI-H460 lung = test system: NCI-H460 lung
SF-539 CNS = test system: SF-539 CNS
SF-268 CNS = test system: SF-268 CNS
OVCAR-3 ovarian = test system: OVCAR-3 ovarian
M14 melanoma = test system: M14 melanoma
SNB-19 CNS = test system: SNB-19 CNS
MOLT-4 leukemia = test system: MOLT-4 leukemia
COLO 205 colon = test system: COLO 205 colon
IGROV1 ovarian = test system: IGROV1 ovarian
SK-OV-3 ovarian = test system: SK-OV-3 ovarian
NCI/ADR-RES ovarian = test system: NCI/ADR-RES ovarian
CAKI-1 renal = test system: CAKI-1 renal
EKVX NSCLC = test system: EKVX NSCLC
T-47D breast = test system: T-47D breast
MCF7 breast = test system: MCF7 breast
NCI-H226 lung = test system: NCI-H226 lung
OVCAR-8 ovarian = test system: OVCAR-8 ovarian
TK-10 renal = test system: TK-10 renal
SK-MEL-5 melanoma = test system: SK-MEL-5 melanoma
HL-60(TB) leukemia = test system: HL-60(TB) leukemia
HS 578T breast = test system: HS 578T breast
MDA-MB-231 breast = test system: MDA-MB-231 breast
A549 NSCLC = test system: A549 NSCLC
HCC-2998 colon = test system: HCC-2998 colon
HCT-15 colon = test system: HCT-15 colon
DU-145 prostate = test system: DU-145 prostate
OVCAR-5 ovarian = test system: OVCAR-5 ovarian
RXF 393 renal = test system: RXF 393 renal
OVCAR-4 ovarian = test system: OVCAR-4 ovarian
U251 CNS = test system: U251 CNS
SK-MEL-28 melanoma = test system: SK-MEL-28 melanoma
UO-31 renal = test system: UO-31 renal
CCRF-CEM leukemia = test system: CCRF-CEM leukemia
NCI-H23 lung = test system: NCI-H23 lung
NCI-H522 lung = test system: NCI-H522 lung
MDA-MB-435 = test system: MDA-MB-435
SW-620 colon = test system: SW-620 colon
A498 renal = test system: A498 renal

Compound: CCOC(=O)c1c(NC(=O)c2cccc(C(F)(F)F)c2)sc2c(CN(C)C)c(O)ccc12
- GI50 (KM12 colon): 4.92 µM
- TGI (KM12 colon): 17.9 µM
- GI50 (LOX IMVI melanoma): 2.7 µM
- TGI (LOX IMVI melanoma): 7.52 µM
- GI50 (SR leukemia): 3.16 µM
- TGI (SR leukemia): 6.92 µM
- GI50 (HT29 colon): 2.21 µM
- TGI (HT29 colon): 5.05 µM
- GI50 (K-562 leukemia): 1.83 µM
- TGI (K-562 leukemia): 4.76 µM
- GI50 (SN12C renal): 7.68 µM
- TGI (SN12C renal): 20.4 µM
- GI50 (786-0 renal): 2.33 µM
- TGI (786-0 renal): 6.1 µM
- GI50 (MALME-3M melanoma): 1.71 µM
- TGI (MALME-3M melanoma): 3.22 µM
- GI50 (UACC-257 melanoma): 1.76 µM
- TGI (UACC-257 melanoma): 3.31 µM
- GI50 (HOP-92 NSCLC): 2.76 µM
- TGI (HOP-92 NSCLC): 15.2 µM
- GI50 (PC-3 prostate): 5.45 µM
- TGI (PC-3 prostate): 18.1 µM
- GI50 (SF-295 CNS): 2.83 µM
- TGI (SF-295 CNS): 9.2 µM
- GI50 (SNB-75 CNS): 11.1 µM
- TGI (SNB-75 CNS): 26.8 µM
- GI50 (HOP-62 NSCLC): 13.8 µM
- TGI (HOP-62 NSCLC): 27.7 µM
- GI50 (BT-549 breast): 12.2 µM
- TGI (BT-549 breast): 26.9 µM
- GI50 (HCT-116 colon): 3.14 µM
- TGI (HCT-116 colon): 10.3 µM
- GI50 (SK-MEL-2 melanoma): 2.57 µM
- TGI (SK-MEL-2 melanoma): 6.92 µM
- GI50 (UACC-62 melanoma): 1.71 µM
- TGI (UACC-62 melanoma): 3.17 µM
- GI50 (ACHN renal): 4.49 µM
- TGI (ACHN renal): 15.8 µM
- GI50 (NCI-H460 lung): 2.19 µM
- TGI (NCI-H460 lung): 4.76 µM
- GI50 (SF-539 CNS): 3.41 µM
- TGI (SF-539 CNS): 12.4 µM
- GI50 (SF-268 CNS): 4.69 µM
- TGI (SF-268 CNS): 24.1 µM
- GI50 (OVCAR-3 ovarian): 10.1 µM
- TGI (OVCAR-3 ovarian): 21.7 µM
- GI50 (M14 melanoma): 1.89 µM
- TGI (M14 melanoma): 3.53 µM
- GI50 (SNB-19 CNS): 10.6 µM
- TGI (SNB-19 CNS): 22.8 µM
- GI50 (MOLT-4 leukemia): 3.77 µM
- TGI (MOLT-4 leukemia): 38.8 µM
- GI50 (COLO 205 colon): 2.1 µM
- TGI (COLO 205 colon): 4.66 µM
- GI50 (IGROV1 ovarian): 12.2 µM
- TGI (IGROV1 ovarian): 28.8 µM
- GI50 (SK-OV-3 ovarian): 19.1 µM
- TGI (SK-OV-3 ovarian): 41.8 µM
- GI50 (NCI/ADR-RES ovarian): 8.82 µM
- TGI (NCI/ADR-RES ovarian): 21 µM
- GI50 (CAKI-1 renal): 2.16 µM
- TGI (CAKI-1 renal): 5.07 µM
- GI50 (EKVX NSCLC): 15.2 µM
- TGI (EKVX NSCLC): 36.1 µM
- GI50 (T-47D breast): 3.74 µM
- TGI (T-47D breast): 21.4 µM
- GI50 (MCF7 breast): 2.81 µM
- TGI (MCF7 breast): 12.1 µM
- GI50 (NCI-H226 lung): 16 µM
- TGI (NCI-H226 lung): 36.2 µM
- GI50 (OVCAR-8 ovarian): 6.12 µM
- TGI (OVCAR-8 ovarian): 18.8 µM
- GI50 (TK-10 renal): 4.25 µM
- TGI (TK-10 renal): 15.8 µM
- GI50 (SK-MEL-5 melanoma): 2.36 µM
- TGI (SK-MEL-5 melanoma): 5.72 µM
- GI50 (HL-60(TB) leukemia): 1.89 µM
- TGI (HL-60(TB) leukemia): 4.26 µM
- GI50 (HS 578T breast): 6.78 µM
- TGI (HS 578T breast): 26.4 µM
- GI50 (MDA-MB-231 breast): 4.23 µM
- TGI (MDA-MB-231 breast): 15.2 µM
- GI50 (A549 NSCLC): 3.3 µM
- TGI (A549 NSCLC): 12.7 µM
- GI50 (HCC-2998 colon): 1.77 µM
- TGI (HCC-2998 colon): 3.77 µM
- GI50 (HCT-15 colon): 2.13 µM
- TGI (HCT-15 colon): 5.77 µM
- GI50 (DU-145 prostate): 5.82 µM
- TGI (DU-145 prostate): 17.9 µM
- GI50 (OVCAR-5 ovarian): 4.58 µM
- TGI (OVCAR-5 ovarian): 16.7 µM
- GI50 (RXF 393 renal): 1.81 µM
- TGI (RXF 393 renal): 3.76 µM
- GI50 (OVCAR-4 ovarian): 9.85 µM
- TGI (OVCAR-4 ovarian): 21.5 µM
- GI50 (U251 CNS): 2.21 µM
- TGI (U251 CNS): 5.45 µM
- GI50 (SK-MEL-28 melanoma): 1.76 µM
- TGI (SK-MEL-28 melanoma): 3.21 µM
- GI50 (UO-31 renal): 3.34 µM
- TGI (UO-31 renal): 14.4 µM
- GI50 (CCRF-CEM leukemia): 3.41 µM
- TGI (CCRF-CEM leukemia): 11.7 µM
- GI50 (NCI-H23 lung): 13.1 µM
- TGI (NCI-H23 lung): 32.1 µM
- GI50 (NCI-H522 lung): 5.03 µM
- TGI (NCI-H522 lung): 28 µM
- GI50 (MDA-MB-435): 3.15 µM
- TGI (MDA-MB-435): 12.9 µM
- GI50 (SW-620 colon): 2.31 µM
- TGI (SW-620 colon): 5.53 µM
- GI50 (A498 renal): 12.4 µM
- TGI (A498 renal): 34.5 µM
